This note sets out measurements from patent publication US8017611B2, “Pyridine and pyrazine derivatives -083” (AstraZeneca AB, priority 2007, dated 2011).

One experiment has as its target T1, recombinant Axl tyrosine kinase (Homo sapiens, UniProt P30530).
T1 construct: encompassing amino acids 473 to 894 of Axl; GST (N); made in house; host or cells: SF126 insect cells
T1 sequence (P30530 473-894): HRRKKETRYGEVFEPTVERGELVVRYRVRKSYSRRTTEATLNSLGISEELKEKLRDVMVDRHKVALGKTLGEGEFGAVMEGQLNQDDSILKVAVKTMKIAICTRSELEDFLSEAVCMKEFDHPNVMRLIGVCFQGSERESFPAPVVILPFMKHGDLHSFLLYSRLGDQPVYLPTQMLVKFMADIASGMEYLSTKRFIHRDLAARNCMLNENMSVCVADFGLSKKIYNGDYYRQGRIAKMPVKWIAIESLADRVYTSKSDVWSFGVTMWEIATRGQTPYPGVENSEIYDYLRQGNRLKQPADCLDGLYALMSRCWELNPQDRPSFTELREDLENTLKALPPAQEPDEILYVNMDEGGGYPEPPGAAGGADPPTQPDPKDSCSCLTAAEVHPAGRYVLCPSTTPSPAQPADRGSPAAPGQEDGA
The experiment can be described thus: In vitro Axl kinase assay (AlphaScreen), Test (a). It counts as biochemical. The settings on record: test compound at 1 μM; first value quoted. Background: In Alpha technology, singlet oxygen from a donor bead excites a nearby acceptor bead.
On to `COc1cc(-c2cnc(N)c(-c3nc4ncccc4o3)c2)ccc1OCCN1CCCC1` [Example 43C.5], for which the “% Axl tyrosine kinase inhibition at 1 μM concentration” value (“% Axl tyrosine kinase inhibition” below) is 99.7%.
Regarding `COc1cc(-c2cnc(N)c(-c3nc4ncccc4o3)c2)ccc1OC[C@@H]1CCCN1C` [Example 43C.6], the “% Axl tyrosine kinase inhibition” value is listed as 99.8%.
`COc1cc(-c2cnc(N)c(-c3nc4ncccc4o3)c2)ccc1OCCN1CCN(C)CC1` [Example 43C.7]: the “% Axl tyrosine kinase inhibition” value is 99.1%.
In the case of `COc1cc(-c2cnc(N)c(-c3nc4ncccc4o3)c2)ccc1OCCN1CCCCC1` [Example 43C.8], the “% Axl tyrosine kinase inhibition” value is 99.9%.
The same measure, in the same setting: in the case of `COc1cc(-c2cnc(N)c(-c3nc4ncccc4o3)c2)ccc1OC1CCCN(C)C1` (stereo not shown) [Example 43C.9] it was 99.9%; in that of `COc1cc(-c2cnc(N)c(-c3nc4ncccc4o3)c2)ccc1OCCCN(C)C` [Example 43C.10], 98.9%.
As to `COc1cc(-c2cnc(N)c(-c3nc4ncccc4o3)c2)ccc1OC1CCN(C)CC1` [Example 43C.11], the “% Axl tyrosine kinase inhibition” value turned out to be 98.9%.
Same read-out and setting: in the case of `COc1cc(-c2cnc(N)c(-c3nc4ncccc4o3)c2)ccc1OCC1CCCN(C)C1` (stereo not shown) [Example 43C.12] it was 99.6%; in that of `COc1cc(-c2cnc(N)c(-c3nc4ncccc4o3)c2)ccc1OCCC1CCCCN1C` (stereo not shown) [Example 43C.13], 99.9%; in that of `COc1cc(-c2cnc(N)c(-c3nc4ncccc4o3)c2)ccc1OCCCN1CCN(C)CC1` [Example 43C.14], 99.3%.
The same measure, in the same setting: in the case of `COc1cc(-c2cnc(N)c(-c3nc4ncccc4o3)c2)ccc1OCCCN1CCN(S(C)(=O)=O)CC1` [Example 43C.15] it was 97.2%; in that of `COc1cc(-c2cnc(N)c(-c3nc4ncccc4o3)c2)ccc1OCCCN1CCS(=O)(=O)CC1` [Example 43C.16], 98.1%.
On to `COc1cc(-c2cnc(N)c(-c3nc4ncccc4o3)c2)ccc1OCCCN1CCOCC1` [Example 43C.17], for which the “% Axl tyrosine kinase inhibition” value came to 93.5%.
As to `CCN(CC)CCCOc1ccc(-c2cnc(N)c(-c3nc4ncccc4o3)c2)cc1OC` [Example 43C.18], the “% Axl tyrosine kinase inhibition” value is 99.8%.
On the same count and under the same terms, in the case of `COc1cc(-c2cnc(N)c(-c3nc4ncccc4o3)c2)ccc1OC1CC2CCC(C1)N2C` (stereo not shown) [Example 43C.19] it was 99.7%; in that of `COc1cc(-c2cnc(N)c(-c3nc4ncccc4o3)c2)ccc1OCC#CCN1CCS(=O)(=O)CC1` [Example 43C.20], 98.1%; in that of `COc1cc(-c2cnc(N)c(-c3nc4ncccc4o3)c2)ccc1OCCN` [Example 43C.21], 99.3%.
On the same count and under the same terms, then `CNCCOc1ccc(-c2cnc(N)c(-c3nc4ncccc4o3)c2)cc1OC` [Example 43C.22], with 98.2%; and `COc1cc(-c2cnc(N)c(-c3nc4ncccc4o3)c2)ccc1OC1CCNC1` (stereo not shown) [Example 43C.23], with 99.3%; and `COc1cc(-c2cnc(N)c(-c3nc4ncccc4o3)c2)ccc1OC[C@H]1CCCN1` [Example 43C.24], with 99.6%.
Consider `COc1cc(-c2cnc(N)c(-c3nc4ncccc4o3)c2)ccc1OCCN1CCNCC1` [Example 43C.25], for which the “% Axl tyrosine kinase inhibition” value was found to be 99.5%.
Regarding `COc1cc(-c2cnc(N)c(-c3nc4ncccc4o3)c2)ccc1OC1CCCNC1` (stereo not shown) [Example 43C.26], the “% Axl tyrosine kinase inhibition” value came to 99.6%.
As for `COc1cc(-c2cnc(N)c(-c3nc4ncccc4o3)c2)ccc1OCCCN` [Example 43C.27], the “% Axl tyrosine kinase inhibition” value was 99.4%.
Same read-out and setting: in the case of `CNCCCOc1ccc(-c2cnc(N)c(-c3nc4ncccc4o3)c2)cc1OC` [Example 43C.28] it was 51.0%; in that of `COc1cc(-c2cnc(N)c(-c3nc4ncccc4o3)c2)ccc1OC1CCNCC1` [Example 43C.29], 99.9%.
On the same count and under the same terms, in the case of `COc1cc(-c2cnc(N)c(-c3nc4ncccc4o3)c2)ccc1OCCCCN` [Example 43C.30] it was 99.0%; in that of `COc1cc(-c2cnc(N)c(-c3nc4ncccc4o3)c2)ccc1OCCC1CCNCC1` [Example 43C.31], 99.3%; in that of `COc1cc(-c2cnc(N)c(-c3nc4ncccc4o3)c2)ccc1OCCCN1CCNCC1` [Example 43C.32], 99.8%.
With `COc1cc(-c2cnc(N)c(-c3nc4ncccc4o3)c2)ccc1OCC1CCCNC1` (stereo not shown) [Example 43C.33], the “% Axl tyrosine kinase inhibition” value worked out at 99.8%.
On the same count and under the same terms, in the case of `COc1cc(-c2cnc(N)c(-c3nc4ncccc4o3)c2)ccc1OCCCN1CC(C)NC(C)C1` (stereo not shown) [Example 43C.34] it was 99.1%; in that of `COc1cc(-c2cnc(N)c(-c3nc4ncccc4o3)c2)ccc1OCCOCCN1CCNCC1` [Example 43C.35], 99.2%.
The same measure, in the same setting: then `COCC1CC(Oc2ccc(-c3cnc(N)c(-c4nc5ncccc5o4)c3)cc2OC)CN1` (stereo not shown) [Example 43C.36], with 99.8%; and `CN[C@H]1COCC[C@H]1Oc1ccc(-c2cnc(N)c(-c3nc4ncccc4o3)c2)cc1OC` [Example 43C.37], with 99.4%; and `COc1cc(-c2cnc(N)c(-c3nc4ncccc4o3)c2)ccc1OC1CCCNCC1` (stereo not shown) [Example 43C.38], with 99.8%.
On the same count and under the same terms, in the case of `CN(C)C1CCN(C(=O)c2ccc(-c3cnc(N)c(-c4nc5cccnc5o4)c3)cc2)CC1` [Example 45A.1] it was 92.9%.
Turning to `CN(C)CCCCNC(=O)c1ccc(-c2cnc(N)c(-c3nc4cccnc4o3)c2)cc1` [Example 45A.2], the “% Axl tyrosine kinase inhibition” value is recorded as 96.6%.
Same read-out and setting: then `CN1CCC(N(C)C(=O)c2ccc(-c3cnc(N)c(-c4nc5cccnc5o4)c3)cc2)C1` (stereo not shown) [Example 45A.3], with 98.0%; and `CN1CCCC1CCNC(=O)c1ccc(-c2cnc(N)c(-c3nc4cccnc4o3)c2)cc1` (stereo not shown) [Example 45A.5], with 98.8%; and `Nc1ncc(-c2ccc(C(=O)NCCCN3CCCC3)cc2)cc1-c1nc2cccnc2o1` [Example 45A.6], with 97.4%.
On the same count and under the same terms, then `Nc1ncc(-c2ccc(C(=O)NCCn3ccnc3)cc2)cc1-c1nc2cccnc2o1` [Example 45A.7], with 97.7%; and `Nc1ncc(-c2ccc(C(=O)N3CCCCC3CN3CCCCC3)cc2)cc1-c1nc2cccnc2o1` (stereo not shown) [Example 45A.8], with 99.8%; and `Nc1ncc(-c2ccc(C(=O)NCCCN3CCCCC3)cc2)cc1-c1nc2cccnc2o1` [Example 45A.9], with 99.0%.
On the same count and under the same terms, in the case of `COCCN1CCC(NC(=O)c2ccc(-c3cnc(N)c(-c4nc5cccnc5o4)c3)cc2)CC1` [Example 45A.10] it was 97.5%; in that of `Nc1ncc(-c2ccc(C(=O)NCCN3CCS(=O)(=O)CC3)cc2)cc1-c1nc2cccnc2o1` [Example 45A.12], 96.3%.
For `CN(C)CCC1CCN(C(=O)c2ccc(-c3cnc(N)c(-c4nc5cccnc5o4)c3)cc2)CC1` [Example 45A.14], the “% Axl tyrosine kinase inhibition” value turned out to be 89.9%.
As for `CN1CCCCC1C1CCCN1C(=O)c1ccc(-c2cnc(N)c(-c3nc4cccnc4o3)c2)cc1` (stereo not shown) [Example 45A.15], the “% Axl tyrosine kinase inhibition” value worked out at 99.7%.
On the same count and under the same terms, in the case of `Nc1ncc(-c2ccc(C(=O)N3CCCC3CN3CCOCC3)cc2)cc1-c1nc2cccnc2o1` (stereo not shown) [Example 45A.16] it was 94.2%; in that of `Nc1ncc(-c2ccc(C(=O)N3CCCC3CN3CCCCCC3)cc2)cc1-c1nc2cccnc2o1` (stereo not shown) [Example 45A.17], 99.6%; in that of `CC1CCCCN1CC1CCCN1C(=O)c1ccc(-c2cnc(N)c(-c3nc4cccnc4o3)c2)cc1` (stereo not shown) [Example 45A.18], 99.7%.
For `CN1CCCC(NC(=O)c2ccc(-c3cnc(N)c(-c4nc5cccnc5o4)c3)cc2)C1` (stereo not shown) [Example 45A.19], the “% Axl tyrosine kinase inhibition” value stood at 98.7%.
Still for that read-out and setting: then `CN(C)C1CCCN(C(=O)c2ccc(-c3cnc(N)c(-c4nc5cccnc5o4)c3)cc2)C1` (stereo not shown) [Example 45A.20], with 98.9%.
The same measure, in the same setting: in the case of `Nc1ncc(-c2ccc(C(=O)N3CCCCC3CN3CCOCC3)cc2)cc1-c1nc2cccnc2o1` (stereo not shown) [Example 45A.21] it was 96.4%; in that of `Nc1ncc(-c2ccc(C(=O)N3CC[C@H](N4CCCC4)C3)cc2)cc1-c1nc2cccnc2o1` [Example 45A.22], 97.1%; in that of `Nc1ncc(-c2ccc(C(=O)N3CCCCC3CN3CCCC3)cc2)cc1-c1nc2cccnc2o1` (stereo not shown) [Example 45A.23], 99.8%.

Staying with this experiment, now noted: test compound at 1 μM; first value quoted; read-out: % Axl tyrosine kinase inhibition at 1 μM concentration.
Consider `CN(C)CCNC(=O)c1ccc(-c2cnc(N)c(-c3nc4cccnc4o3)c2)cc1` [Example 44, 4-(6-amino-5-(oxazolo[5,4-b]pyridin-2-yl)pyridin-3-yl)-N-(2-(dimethylamino)ethyl)benzamide], for which the inhibition at 1 µM turned out to be 99.6%.
